Values quoted from earlier work as cited in US10563263B2, “Genetic polymorphisms associated with statin response and cardiovascular diseases, methods of detection and uses thereof” (CELERA CORPORATION, priority 2010, dated 2020).

Tested on: myocyte cultures
Settings: animal models and myocyte cultures; compared to lipophilic statins; cited from earlier work

Question: For `CC[C@H](C)C(=O)O[C@H]1C[C@H](O)C=C2C=C[C@H](C)[C@H](CC[C@@H](O)C[C@@H](O)CC(=O)O)[C@H]21` [Pravastatin, pravastatin], which myopathic potential is on record?
Answer: low myopathic potential
